From patent US7732637B2, “Acylamide compounds having secretagogue or inducer activity of adiponectin” (Ajinomoto Co., Inc., priority 2005, dated 2010)

Each molecule was assayed on 3T3-L1 cells (assay: Adiponectin output in culture supernatant of differentiated 3T3-L1 cells (LANCE immunoassay)). Details: adiponectin concentration in culture supernatant, test compound 7 μg/mL, 72 hours; control without compound 24 ng/mL.
Format: cell-based, mouse
Method: 3T3-L1 cells were suspended in Dulbecco's Modified Eagle Medium (GIBCO, 12430-054) containing 10% fetal bovine serum to become 1.5×10^5 cells/mL and seeded. After the incubation in the CO2 incubator at 37° C. for 72 hours, the medium was removed by suction. Then, the medium was exchanged for Dulbecco's Modified Eagle Medium containing 10 μg/mL of insulin, 1 μM of dexamethasone, 0.5 mM of IBMX (3-isobutyl-1-methylxanthine) and 10% fetal bovine serum, and further incubated in the CO2 incubator at 37° C. for 48 hours. The test compound was added to the medium, and then the incubation was continued for 72 hours.
Eu (Europium) chelate labeling of anti-mouse adiponectin antibody (AF1119, by R&D Systems) was conducted by using 100 μg of LANCE Eu-W1024-ITC chelate (AD0013 by Perkin Elmer), which is a Eu chelate labeling reagent, to 200 μg of the antibody in accordance with the method described in the manual of the manufacturer. Biotin labeling of anti-mouse adiponectin antibody (AF1119, by R&D Systems) was conducted by using 26.8 μg of NHS-Biotin (1418165, Biotin Labeling Kit, by Boehringer Mannheim), which is a biotin labeling reagent, to 100 μg of the antibody in accordance with the method described in the manual.
The amount of adiponectin in the cell culture supernatant was measured as follows. The culture supernatant was diluted fivefold with TBS (Tris-buffered saline; 20 mM Tris-HCl pH 7.4, 0.15M NaCl) containing 0.1% bovine serum albumin (BSA), and 10 μL thereof was mixed with 300 ng/mL of the Eu chelate labeled antibody, 300 ng/mL of the biotin labeled antibody, 2.5 μg/mL of Streptavidin-APC (AD0201, by Perkin Elmer) and 10 μL of a TBS solution containing 0.1% BSA on the 384-well plate. After preserving the mixture at room temperature for 2 days, LANCE count was measured by using ARVO-SX multilabel counter (by Perkin Elmer) in accordance with the protocol of the LANCE method. At the same time, the mouse adiponectin preparation (8060-K, by LINCO) was also measured, and the concentration of adiponectin in the culture supernatant was calculated from the calibration curve of the preparation.
Adiponectin outputs were measured by the same method as that of Examples 1 to 31.

SMILES	Adiponectin output [ng/mL]
CCCCCCCCCCCC(=O)NC(C)(CC)C(=O)O (racemic) [Example 16]	78
CCCCCCCCCCCC(=O)NC(C)(C(=O)O)C(C)C (racemic) [Example 18]	87
CCCCCCCCCCCC(=O)NC(C(N)=O)C(C)C (racemic) [Example 21]	70
CCCCCCCCCCCCNC(=O)C(NC(=O)CCCCCCCCCCC)C(C)C (racemic) [Example 22]	64
CCCCCCCCCCCC(=O)N[C@H](C(=O)NC1CCCCC1)C(C)C (racemic) [Example 23, N-lauroyl-L-valine cyclohexylamide]	65
C=CCCCCCCCCC(=O)N[C@@H](Cc1ccccc1)C(=O)O [Example 8]	54
CCCCCCCCCCC(=O)N[C@@H](Cc1ccccc1)C(=O)O [Example 12]	58
CCCCCCCCCCCC(=O)NC(C)(C)C(=O)O [Example 17]	81
CCCCCCCCCCCC(=O)N[C@@H](CCSC)C(=O)O [Example 19]	71
CCCCCCCCCCCC(=O)N(CC)[C@H](C(=O)O)C(C)C [Example 24]	66

Same assay, conditions: adiponectin concentration in culture supernatant, test compound 12.5 μM, 72 hours; control without compound 24 ng/mL

SMILES	Adiponectin output [ng/mL]
CCCCCCCCC(=O)N[C@H](C(=O)O)[C@@H](C)CC [Example 2]	58
CCCCCCCCC(=O)N[C@@H](CC(C)C)C(=O)O [Example 3]	42
CCCCCCCCC(=O)N[C@H](C(=O)O)C(C)C [Example 4]	64
CCCCCCCCCC(=O)N[C@H](C(=O)O)[C@@H](C)CC [Example 5]	74
CCCCCCCCCC(=O)N[C@@H](CC(C)C)C(=O)O [Example 6]	54
C=CCCCCCCCCC(=O)N[C@@H](CC(C)C)C(=O)O [Example 7]	61
CCCCCCCCCC(=O)N[C@H](C(=O)O)C(C)C [Example 9]	81
C=CCCCCCCCCC(=O)N[C@H](C(=O)O)C(C)C [Example 10]	59
CCCCCCCCCCC(=O)N[C@@H](CC(C)C)C(=O)O [Example 11]	45
CCCCCCCCCCCC(=O)N[C@H](C(=O)O)[C@@H](C)CC [Example 14]	84
CCCCCCCCCCCC(=O)N[C@@H](CC(C)C)C(=O)O [Example 15]	67
CCCCCCCCCCCC(=O)N[C@H](C(=O)O)C(C)C [Example 20, N-lauroyl-L-valine]	92
CCCCCCCCCCCCCC(=O)N[C@H](C(=O)O)[C@@H](C)CC [Example 25]	93
CCCCCCCCCCCCCC(=O)N[C@@H](CC(C)C)C(=O)O [Example 26]	56
CCCCCCCCCCCCCCCC(=O)N[C@@H](CC(C)C)C(=O)O [Example 27]	57
CCCCCCCCCCCCCCCC(=O)N[C@H](C(=O)O)C(C)C [Example 28]	31
CCCCCCCCCCCCCCCCCC(=O)N[C@@H](CC(C)C)C(=O)O [Example 29]	43
CCCCCCCCCCCCCCCCCC(=O)N[C@H](C(=O)O)C(C)C [Example 30]	43
CCCCCCCCCCCCCCCCCCCCCC(=O)N[C@H](C(=O)O)C(C)C [Example 31]	42

Same assay, conditions: adiponectin output as ratio to that of Example 20 in Table 1; same method as Examples 1 to 31

SMILES	Adiponectin Ratio to Exam. 20 of Table 1 [%]
CCCCCCCCCCCC(=O)NC(C(=O)O)C(C(F)(F)F)C(F)(F)F (racemic) [Example 34]	25
CCCCCCCCCCCC(=O)NC(Cc1ccccc1C)C(=O)O (racemic) [Example 38]	31
CCCCCCCCCCCC(=O)NC(C)(Cc1ccccc1)C(=O)O (racemic) [Example 41]	22
CCCCCCCCCC(=O)N[C@H](C(=O)O)C(C)(C)C [Example 32]	56
CCCCCCCCCCCC(=O)N[C@H](C(=O)O)C(C)(C)C [Example 33]	103
CCCCCCCCCCCC(=O)NC(C(=O)O)C(C)CC (centres unmarked) [Example 35]	83
CCCCCCCCCCCC(=O)N[C@H](C(=O)O)c1ccccc1 [Example 36]	33
CCCCCCCCCCCC(=O)N[C@@H](Cc1ccc(OC)cc1)C(=O)O [Example 37]	46
CCCCCCCCCCCC(=O)N[C@H](C(=O)O)C1CCCCC1 [Example 39]	41
CCCCCCCCCCCC(=O)N[C@H](C(=O)O)C(c1ccccc1)c1ccccc1 [Example 40]	14
CCCCCCCCCCCC(=O)N[C@@H](Cc1ccc(Cl)cc1)C(=O)O [Example 42]	44
CCCCCCCCCCCC(=O)N[C@@H](Cc1csc2ccccc12)C(=O)O [Example 43]	20

These molecules were tested on acyl-CoA oxidase (ACO) gene (assay: ACO mRNA expression level in liver of ob/ob mice). Details: 500 mg/kg orally once a day; autopsy 38th day; divided by GAPDH mRNA; vs control groups; FIG. 5.
Format: in vivo
Method: (§1) Male ob/ob mice of 5 weeks old (purchased from Charles River Laboratories Japan, Inc.) were preliminarily fed for one week by an experimental diet containing 25% by weight ratio of fats. Then, they were divided into groups so that their body weights and blood glucose were the same between the groups. After the division, N-lauroyl-L-valine (500 mg/kg) was orally administered once a day, and a control group was set, to which vehicle was administered. […] The non-fasting blood glucose was measured on the 6th, 14th and 26th day after starting the administration. The blood glucose was measured by collecting 6 μL of the blood from the caudal vein and using a Fuji DriChem system (produced by FUJIFILM Medical Co., Ltd.). […] Further, on the 27th day after starting the administration, the blood was collected by retroorbital bleeding, and the insulin and triglyceride concentrations in plasma were measured. […] SYBER GREEN Master Mix (ABI) and a primer for amplifying uncoupling protein 2 (UCP2) gene, acyl-CoA oxidase (ACO) gene or glyceraldehyde-3-phosphate dehydrogenase (GAPDH) gene were added to cDNA corresponding to 7.5 ng of total RNA, and the gene expression level was measured with ABI 7700 detector. […]

SMILES	ACO mRNA expression level in the liver
CCCCCCCCCCCC(=O)N[C@H](C(=O)O)C(C)C [Example 20, N-lauroyl-L-valine]	significantly increased

Each molecule was assayed on ob/ob mice (assay: Oral administration to ob/ob mice on 25% fat diet: blood glucose, glycated hemoglobin, plasma insulin and triglyceride). Details: 500 mg/kg orally once a day; 6th, 14th and 26th day vs before starting the administration; FIG. 1.
Format: in vivo
Method: Male ob/ob mice of 5 weeks old (purchased from Charles River Laboratories Japan, Inc.) were preliminarily fed for one week by an experimental diet containing 25% by weight ratio of fats. Then, they were divided into groups so that their body weights and blood glucose were the same between the groups. After the division, N-lauroyl-L-valine (500 mg/kg) was orally administered once a day, and a control group was set, to which vehicle was administered. Taking into consideration the possibility that the effect of N-lauroyl-L-valine depends on the diet intake, pair-feeding group was also set as a control group in addition to the vehicle administered group, to which vehicle was daily administered in an average diet intake per a day of the N-lauroyl-L-valine administered group and, therefore, the diet intake thereof is quite the same as that of the N-lauroyl-L-valine administered group during the test period. The non-fasting blood glucose was measured on the 6th, 14th and 26th day after starting the administration. The blood glucose was measured by collecting 6 μL of the blood from the caudal vein and using a Fuji DriChem system (produced by FUJIFILM Medical Co., Ltd.). On the 26th day after starting the administration, the blood was collected by retroorbital bleeding, and 5 μL of its blood was used to conduct the measurement of glycated hemoglobin with the analyzer (HLC-723 GHbV, by Tosoh Technosystem). Further, on the 27th day after starting the administration, the blood was collected by retroorbital bleeding, and the insulin and triglyceride concentrations in plasma were measured. The measurement of the insulin concentration in plasma was conducted by using an insulin measurement kit (by Morinaga Institute of Biological Science, Inc.). The measurement of the triglyceride concentration in plasma was conducted by using a Fuji DriChem system. On the 38th day after staring the administration, autopsy was conducted to collect the liver of the mouse. Then, total RNA was extracted from the frozen liver by using ISOGEN (by Nippon Gene Co., Ltd.), and 0.5 μg of total RNA, oligo (dT) (by Invitrogen) and SuperScript III reverse transcriptase (by Invitrogen) were used to prepare cDNA. SYBER GREEN Master Mix (ABI) and a primer for amplifying uncoupling protein 2 (UCP2) gene, acyl-CoA oxidase (ACO) gene or glyceraldehyde-3-phosphate dehydrogenase (GAPDH) gene were added to cDNA corresponding to 7.5 ng of total RNA, and the gene expression level was measured with ABI 7700 detector. The expression levels of UCP2 and ACO genes were amended by being divided by the expression level of GAPDH mRNA. Two kinds of primers for amplifying UCP2 gene were used wherein the base sequences were ggcctctggaaagggactt and […] from 5′. […]

SMILES	non-fasting blood glucose
CCCCCCCCCCCC(=O)N[C@H](C(=O)O)C(C)C [Example 20, N-lauroyl-L-valine]	decreased

Same assay, conditions: 500 mg/kg orally once a day; 26th day; vs vehicle group and pair-feeding group; FIG. 2

SMILES	glycated hemoglobin level
CCCCCCCCCCCC(=O)N[C@H](C(=O)O)C(C)C [Example 20, N-lauroyl-L-valine]	significantly lower

Same assay, conditions: 500 mg/kg orally once a day; 27th day vs before; increased in control groups; FIG. 3

SMILES	fasting insulin concentration in plasma
CCCCCCCCCCCC(=O)N[C@H](C(=O)O)C(C)C [Example 20, N-lauroyl-L-valine]	such increase was not seen

Same assay, conditions: 500 mg/kg orally once a day; 27th day; vs control groups; FIG. 6

SMILES	triglyceride concentration in plasma
CCCCCCCCCCCC(=O)N[C@H](C(=O)O)C(C)C [Example 20, N-lauroyl-L-valine]	tended to be lower

What follows are molecules tested on uncoupling protein 2 (UCP2) gene (assay: UCP2 mRNA expression level in liver of ob/ob mice). Details: 500 mg/kg orally once a day; autopsy 38th day; divided by GAPDH mRNA; vs control groups; FIG. 4.
Format: in vivo
Method: as §1

SMILES	UCP2 mRNA expression level in the liver
CCCCCCCCCCCC(=O)N[C@H](C(=O)O)C(C)C [Example 20, N-lauroyl-L-valine]	significantly increased
